Test: xn = mol fraction of the nth substance listed

NC(N)=NCCC[C@H](N)C(=O)O + CCCC[n+]1ccn(C)c1.[Br-] + O
viscosity [mPa·s], 101.3 kPa
Conditions	293.15 K	298.15 K	303.15 K	308.15 K	313.15 K
x1 = 0.000359, x2 = 0	1.013	0.904	0.839	0.771	0.691
x1 = 0.0003655, x2 = 0.00072	1.037	0.922	0.833	0.754	0.688
x1 = 0.0003655, x2 = 0.001439	1.058	0.914	0.816	0.744	0.675
x1 = 0.0007208, x2 = 0	1.025	0.915	0.851	0.783	0.703
x1 = 0.0007266, x2 = 0.0007198	1.048	0.933	0.844	0.766	0.7
x1 = 0.0007324, x2 = 0.001438	1.069	0.925	0.827	0.756	0.686
x1 = 0.001079, x2 = 0	1.036	0.927	0.863	0.795	0.715
x1 = 0.001088, x2 = 0.0007195	1.059	0.944	0.855	0.777	0.712
x1 = 0.001098, x2 = 0.001438	1.08	0.936	0.838	0.767	0.698
x1 = 0.001446, x2 = 0	1.047	0.938	0.874	0.806	0.726
x1 = 0.001452, x2 = 0.0007192	1.07	0.955	0.866	0.788	0.723
x1 = 0.001462, x2 = 0.001437	1.091	0.947	0.849	0.778	0.709
x1 = 0.001811, x2 = 0.000719	1.081	0.966	0.877	0.799	0.734
x1 = 0.00182, x2 = 0	1.059	0.949	0.885	0.817	0.737
x1 = 0.001827, x2 = 0.001437	1.102	0.958	0.86	0.789	0.72
x1 = 0.002121, x2 = 0.001436	1.114	0.97	0.872	0.801	0.732
x1 = 0.002158, x2 = 0	1.073	0.961	0.897	0.829	0.749
x1 = 0.002174, x2 = 0.0007187	1.093	0.978	0.889	0.811	0.746
x1 = 0.002516, x2 = 0	1.087	0.975	0.911	0.843	0.763
x1 = 0.002537, x2 = 0.0007185	1.106	0.991	0.902	0.824	0.759
x1 = 0.002557, x2 = 0.001436	1.127	0.983	0.885	0.814	0.745

CCCC[P+](CC)(CC)CC.N#Cc1ccc[n-]1 + OCC(O)CO
100 kPa
Conditions	electrical conductivity, 293.15 K [S/m]	viscosity, 293.15 K [mPa·s]	viscosity, 298.15 K [mPa·s]	viscosity, 303.15 K [mPa·s]	viscosity, 313.15 K [mPa·s]
x1 = 0.002	0.0013	–	–	–	–
x1 = 0.004	0.0027	1395	880	562	226
x1 = 0.006	0.0041	–	–	–	–
x1 = 0.008	0.0055	–	–	–	–
x1 = 0.011	0.0073	–	–	–	–
x1 = 0.014	0.009	–	–	–	–
x1 = 0.018	0.0106	1500	950	599	234
x1 = 0.021	0.0118	–	–	–	–
x1 = 0.026	0.0135	–	–	–	–
x1 = 0.029	0.0143	–	–	–	–
x1 = 0.033	0.0151	–	–	–	–
x1 = 0.04	0.0162	1598	1015	648	256
x1 = 0.047	0.0175	–	–	–	–
x1 = 0.058	0.0181	1701	1080	690	282
x1 = 0.068	0.0188	–	–	–	–
x1 = 0.08	0.0186	1713	1086	690	277
x1 = 0.104	0.0187	1609	1023	655	268
x1 = 0.129	0.0185	1486	930	569	222
x1 = 0.187	0.018	1202	770	483	200
x1 = 0.259	0.0182	930	603	386	166
x1 = 0.34	0.0225	740	487	318	142
x1 = 0.442	0.0297	589	398	265	123
x1 = 0.577	0.0413	479	323	220	107
x1 = 0.743	0.0623	359	242	168	81
x1 = 0.85	0.0878	250	175	123	62
x1 = 1	0.147	187	137	104	62

CCCCCC(=O)[O-].C[NH+](C)Cc1ccccc1 + CN(C)C=O
viscosity [mPa·s], 101 kPa
Conditions	293.15 K	298.15 K	303.15 K	308.15 K	313.15 K	318.15 K	323.15 K	328.15 K
x1 = 0.005406	0.956	0.916	0.879	0.847	0.818	0.792	0.769	0.748
x1 = 0.008974	0.969	0.927	0.889	0.855	0.825	0.798	0.774	0.752
x1 = 0.01235	0.978	0.934	0.895	0.861	0.83	0.803	0.778	0.755
x1 = 0.01781	1.002	0.955	0.913	0.877	0.844	0.815	0.789	0.765
x1 = 0.01976	1	0.954	0.913	0.877	0.844	0.816	0.79	0.766
x2 = 0.9681	1.042	0.99	0.945	0.905	0.869	0.837	0.809	0.784
x2 = 0.9717	1.03	0.98	0.935	0.896	0.862	0.831	0.803	0.778
x2 = 0.9757	1.02	0.971	0.928	0.89	0.856	0.826	0.799	0.774

Reference: the CheMixHub ionic liquid set
